Source: patent publication US4477664A, “Novel 1-(4-piperidiniobenzyl)-2,3-dioxopiperazine derivatives or acid addition salts thereof” (Toyama Chemical Co., Ltd., priority 1979, dated 1984)
Converted amounts (≈) assume the structure as drawn. Where two headings read alike, the source gives them in different places.

Key:
Ehrlich cells = experiment: MIC value against Ehrlich cells (microplate method); type: cell-based; details: 96 h, 2×10^4 cells/ml, 4 days, Giemsa staining
Source text: (§1) a. MIC value against HeLa S3 cells and Ehrlich cells (microplate method) Number of cells: 2×10^4 cells/ml Culture medium: Eagle's MEM+20% calf embryonic serum Culture time: 4 days Judgement: Giemsa staining

HeLa S3 cells = experiment: MIC value against HeLa S3 cells (microplate method); type: cell-based; details: Homo sapiens, 96 h, 2×10^4 cells/ml, 4 days, Giemsa staining
Source text: as §1

P-388 ascites cells [1] = experiment: Effect on P-388 leukemia (i): intraperitoneal inoculation, mean survival days; type: in vivo, BDF1-strain mice; details: 100 mg/kg, once a day for 7 days
Method: (i) P-388 ascites cells (1×10^6 cells/head) were inoculated intraperitoneally into BDF1 -strain mice (female, 6 weeks old, each group consisting of 4 mice), and after 24 hours, the intraperitoneal administration of a test drug was started and effected once a day for 7 days. The effect thereof was judged from the mean survival days. The test drug was used in the form of a solution or suspension in a saline solution or a 0.3% carboxymethyl cellulose-containing saline solution. T/C was calculated in the same manner as in above b(i).

[2] = test system: Sarcoma 180 ascites cells; experiment: Effect on Sarcoma 180 carcinoma: intraperitoneal inoculation, mean survival days; type: in vivo, ICR-strain mice; details: once a day for 7 days
Method: Sarcoma 180 ascites cells (1×10^6 cells/head) were inocualted intraperitoneally into ICR-strain mice (female, 6 weeks old, each group consisting of 4 or 5 mice), and after 24 hours, the intraperitoneal administration of a test drug was started, and effected once a day for 7 days. The effect thereof was judged from the mean survival days. The test drug was used in the form of a solution or suspension in a saline solution or a 0.3% carboxymethyl cellulose-containing saline solution. [formula]

Acute toxicity = details: mouse, in vivo, ip
Source text: The test drugs were used in the form of a solution or suspension in a saline solution or a 0.3% carboxymethyl cellulose-containing saline solution.

L-1210 ascites cells [3] = experiment: Effect on L-1210 leukemia (i): intraperitoneal inoculation, mean survival days; type: in vivo, BDF1-strain mice
Method: (i) L-1210 ascites cells (1×10^5 cells/head) were inoculated intraperitoneally into BDF1 -strain mice (female, 6 weeks old, each group consisting of 4 mice), and after 24 hours, the intraperitoneal administration of a test drug was started and effected once a day. The effect thereof was judged from the mean survival days. The test drug was used in the form of a solution or suspension in a saline solution or a 0.3% carboxymethyl cellulose-containing saline solution.
T/C was calculated in the same manner as in above b (i).

[4] = test system: Ehrlich ascites carcinoma cells; experiment: Effect on Ehrlich carcinoma (i): intraperitoneal inoculation, mean survival days; type: in vivo, ICR-strain mice; details: Mus musculus, ip, read-out: T/C (mean survival days)
Method: (i) Ehrlich ascites carcinoma cells (1×10^6 cells/head) were inoculated intraperitoneally into ICR-strain mice (female, 6 to 7 weeks old, each group consisting of 5 or 4 mice), and after 24 hours, the […] The effect thereof was judged from the mean survival days.
The test drugs were used in the form of a solution or suspension in a saline solution or a 0.3% carboxymethyl cellulose-containing saline solution. [formula]

P-388 ascites cells [5] = experiment: Effect on P-388 leukemia (ii): subcutaneous inoculation, mean tumor weight; type: in vivo, BDF1-strain mice; details: oral, once a day for 7 days, 11th day
Method: (ii) P-388 ascites cells (1×10^6 cells/head) were inoculated subcutaneously at the right armpit into BDF1 -strain mice (male, 7 weeks old, each group consisting of 8 mice), and after 24 hours, the oral administration of a test drug was started, and effected once a day for 7 days. The effect thereof was judged from the mean weight of the tumor at the 11th day. The test drug was used in the form of a suspension or solution in a 0.3% carboxymethyl cellulose-containing saline solution or a dimethylsulfoxide-propylene glycolphosphate buffer (1:2:1) mixture. T/C was calculated in the same manner as in above b(ii).

B-16 melanoma cells = experiment: Effect on B-16 melanoma: subcutaneous inoculation, mean tumor weight; type: in vivo, BDF1-strain mice
Method: B-16 melanoma cells (1×10^6 cells/head) were inoculated subcutaneously at the right armpit region into BDF1 -strain mice (male, 7 weeks old, each group consisting of 8 mice), and after 24 hours, the oral administration or subcutaneous administration at the […] […] The test drug was used in the form of a suspension or solution in a 0.3% carboxymethyl cellulose-containing saline solution or dimethylsulfoxide-propylene glycol (1:1) mixture. T/C was calculated in the same manner as in above b(ii).

[6] = test system: Ehrlich ascites carcinoma cells; experiment: Effect on Ehrlich carcinoma (ii): subcutaneous inoculation at inguinal region, mean tumor weight; type: in vivo, ICR-strain mice; details: 250 mg/kg, orally, once a day for 5 days, judgement day 15
Method: (ii) Ehrlich ascites carcinoma cells (4×10^6 cells/head) were inoculated subcutaneously at the inguinal region into ICR-strain mice (female, 6 to 7 weeks old, each group consisting of 5 or 4 mice), and after 24 hours, the intraperitaneal or oral administration of a test drug was started and effected once a day for 5 days. The effect thereof was judged from the mean weight of tumor on the 13th or 15th day, respectively.
The test drug was used in the form of a solution or suspension in a saline solution or a 0.3% carboxymethyl cellulose-containing saline solution. [formula]

[7] = test system: Ehrlich ascites carcinoma cells; experiment: Effect on Ehrlich carcinoma (iii): subcutaneous inoculation at right armpit, mean tumor weight; type: in vivo, ICR-strain mice; details: once a day for 7 days, 14th day
Method: (iii) Ehrlich ascites carcinoma cells (4×10^6 cells/head) were inoculated subcutaneously at the right armpit region into ICR-strain mice (female, 7 weeks old, each group consisting of 6 or 7 mice), and after 24 hours, the oral administration or subcutaneous administration at the dorsal region of a test drug was started, and effected once a day for 7 days. The effect thereof was judged from the mean weight of the tumor on the 14th day. The test drug was used in the form of a solution or suspension in a saline solution or a 0.3% carboxymethyl cellulose-containing saline solution.
T/C was calculated in the same manner as in above (ii).

L-1210 ascites cells [8] = experiment: Effect on L-1210 leukemia (ii): subcutaneous inoculation, mean survival days and tumor weight; type: in vivo, BDF1-strain mice; details: oral; for T/C Tumor Weight: 9th day
Method: (ii) L-1210 ascites cells (1×10^6 cells/head) were inoculated subcutaneously into BDF1 -strain mice (male, 6 weeks old, each group consisting of 4 mice), and after 24 hours, the oral administration of a test drug was started, and effected once a day for […]. The effect thereof was judged from the mean survival days and the weight of the tumor on the 9th day.
The test drug was used in the form of a suspension in a 0.3% carboxymethyl cellulose-containing saline solution. T/C was calculated in the same manner as in above b(i) and b(ii).

[9] = test system: Lewis lung carcinoma cells; experiment: Effect on Lewis lung carcinoma: subcutaneous inoculation, average tumor weight; type: in vivo, BDF1-strain mice; details: oral, once a day for 7 days, 21st day
Method: Lewis lung carcinoma cells (1×10^6 cells/head) were inoculated subcutaneously at the right armpit region into BDF1 -strain mice (male, 6 weeks old, each group consisting of 5 mice) and after 24 hours, the oral administration of a test drug was started and effected once a day for 7 days. The effect thereof was judged from the average weight of tumor on the 21st day. The test drug was used in the form of a suspension in a 0.3% carboxymethyl cellulose-containing saline solution. T/C was calculated in the same manner as in above b(ii).

[10] = 100 mg/kg, orally, 7 administrations, 18th day
[11] = 100* mg/kg, orally, 7 administrations, 19th day, in dimethylsulfoxide-propylene glycol (1:1)

Structure (SMILES) | MIC (Ehrlich cells) [µg/mL] | MIC (HeLa S3 cells) [µg/mL] | LD50 at 168 h (Acute toxicity) [mg/kg] | T/C (mean survival days) (L-1210 ascites cells [3]; 50 mg/kg, 9 administrations) [%] | T/C (mean survival days) (L-1210 ascites cells [3]; 200 mg/kg, 3 administrations) [%] | response vs control in vivo at 100 mg/kg ([4]; 168 h, once a day for 7 days) [%] | T/C (mean survival days) ([2]; 10 mg/kg) [%] | Survival Ratio in Days Shown in Parenthesis ([2]; 10 mg/kg, 32 days) | T/C (mean survival days) ([2]; 20 mg/kg) [%] | Survival Ratio in Days Shown in Parenthesis ([2]; 20 mg/kg, 32 days) | T/C (mean tumor weight) (B-16 melanoma cells; [10]) [%] | T/C (mean tumor weight) [6] [%] | T/C (mean tumor weight) ([7]; 50 mg/kg, orally) [%] | T/C (mean tumor weight) ([7]; 50 mg/kg, subcutaneously) [%] | T/C (mean tumor weight) ([7]; 100 mg/kg, orally) [%] | T/C (mean tumor weight) (P-388 ascites cells [5]; 200 mg/kg) [%] | T/C (mean tumor weight) (B-16 melanoma cells; [11]) [%] | T/C (average tumor weight) ([9]; 100 mg/kg) [%] | T/C (average tumor weight) ([9]; 200 mg/kg) [%] | further results
CCCCCCN1CCN(Cc2ccc(Nc3ncccn3)cc2)C(=O)C1=O [Compound 7] | 0.39 to 0.78 (≈ 1.02 to 2.04 µM) | 0.39 to 0.78 (≈ 1.02 to 2.04 µM) | > 1000 | 181 | 159.5 | > 207 |  |  |  |  |  |  |  |  |  |  |  |  |  | T/C (mean survival days) (P-388 ascites cells [1]): 166.3%; T/C (mean survival days) ([2]; 100 mg/kg): > 183.1%; Survival Ratio in Days Shown in Parenthesis ([2]; 100 mg/kg, 35 days): 3/4; T/C (mean survival days) (L-1210 ascites cells [3]; 100 mg/kg, 7 administrations): 168.7%; response vs control in vivo at 50 mg/kg ([4]; 168 h, 50 mg/kg, once a day for 7 days): > 187%
Nc1ccc(Nc2ccc(CN3CCN(Cc4ccccc4)C(=O)C3=O)cc2)nc1 [Compound 4] | < 0.05 | < 0.05 | > 300 | 164.3 |  |  | > 221 | 4/5 | > 221 | 4/5 | 58 | 56.9 | 82 | 15 | 65 |  |  |  |  | T/C (mean tumor weight) (P-388 ascites cells [5]; 50 mg/kg): 79%; T/C (mean tumor weight) (B-16 melanoma cells; 25 mg/kg, subcutaneously, 7 administrations, 19th day): 38%; T/C (mean tumor weight) (B-16 melanoma cells; 50 mg/kg, orally, 9 administrations, 21st day): 60%; T/C (mean tumor weight) (B-16 melanoma cells; 50* mg/kg, orally, 7 administrations, 19th day, in dimethylsulfoxide-propylene glycol (1:1)): 71%; T/C (mean survival days) (L-1210 ascites cells [3]; 100 mg/kg, 3 administrations): 161.9%
O=C1C(=O)N(Cc2ccc(Nc3ncccn3)cc2)CCN1Cc1ccccc1 [Compound 13] | 0.1 (≈ 0.258 µM) | 0.1 (≈ 0.258 µM) | > 1000 | 240.5 | 229 | > 177 |  |  |  |  | 62 | 32.4 |  | 54 | 48 | 49 | 40 | 73.2 | 67.1 | T/C Survival Days (L-1210 ascites cells [8]; 50 mg/kg): 120.0%; T/C Tumor Weight (L-1210 ascites cells [8]; 50 mg/kg): 156.6%; T/C Survival Days (L-1210 ascites cells [8]; 100 mg/kg): 194.4%; T/C Tumor Weight (L-1210 ascites cells [8]; 100 mg/kg): 2.6%; T/C Survival Days (L-1210 ascites cells [8]; 250 mg/kg): 127.8%; T/C Tumor Weight (L-1210 ascites cells [8]; 250 mg/kg): 0%; T/C (mean survival days) ([2]; 50 mg/kg): > 204%; Survival Ratio in Days Shown in Parenthesis ([2]; 50 mg/kg, 32 days): 4/5; T/C (mean tumor weight) (P-388 ascites cells [5]; 60* mg/kg, solution in dimethylsulfoxide-propylene glycol-phosphate buffer (1:2:1)): 25%; T/C (mean tumor weight) (B-16 melanoma cells; 200 mg/kg, orally, 9 administrations, 21st day): 23%; T/C (mean tumor weight) (B-16 melanoma cells; 50* mg/kg, subcutaneously, 7 administrations, 19th day, in dimethylsulfoxide-propylene glycol (1:1)): 88%; T/C (mean survival days) (L-1210 ascites cells [3]; 100 mg/kg, 6 administrations): 150%; T/C (mean tumor weight) ([7]; 200 mg/kg, orally): 26%
Nc1ccc(Nc2ccc(CN3CCN(Cc4ccccc4)C(=O)C3=O)cc2)nc1Cl [Compound 41] | < 0.05 | < 0.05 | > 200 |  |  |  | > 193 | 1/5 | > 218 | 4/5 | 88 |  | 78 | 54 |  | 67 | 43 | 65.9 | 43.4 | T/C (mean tumor weight) (B-16 melanoma cells; 50 mg/kg, subcutaneously, 3 administrations, 19th day): 37%; T/C (mean survival days) (L-1210 ascites cells [3]; 20 mg/kg, 7 administrations): 236%; response vs control in vivo at 50 mg/kg ([4]; 96 h, 50* mg/kg, once a day for 4 days): 195%
